Results reported in US12612411B1, “Imidazopyrazine derivatives, process for preparation thereof, and their uses as luciferins” (INSTITUT PASTEUR, priority 2017, dated 2026).

Biological target: T1, nanoKAZ luciferase (Oplophorus gracilirostris, UniProt Q9GV45, A31E/A60N/A81I/F95D/I117V/K70R/L54V/L99Q/M102K/N193R/P142E/Q151K/Q38R/Q45L/V71I/Y165I)
T1 construct: luciferase catalytic domain (nanoKAZ, 19 kDa) from the Oplophorus-derived luciferase; host or cells: cell-free: 1-Step Human Coupled IVT Kit, pT7CFE1-based vector
T1 sequence (Q9GV45 other isoform, or with tags, fused parts or gaps with the stated changes): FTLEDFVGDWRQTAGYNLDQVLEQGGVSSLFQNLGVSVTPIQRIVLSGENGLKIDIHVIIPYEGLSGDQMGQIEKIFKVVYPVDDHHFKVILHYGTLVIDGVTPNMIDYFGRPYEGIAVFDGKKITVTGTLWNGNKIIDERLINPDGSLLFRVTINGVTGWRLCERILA
Assay: In vitro bioluminescence screening of imidazo[1,2-a]pyrazin-3(7H)-ones with nanoKAZ expressed in vitro (96-well luminometer, 2 h kinetic)
Assay type: biochemical
Details: furimazine = 1
Method: General protocol for the generation of solutions of imidazo[1,2-a]pyrazin-3(7H)-one Q by acidic hydrolysis of imidazo[1,2-a]pyrazin-3-yl acetate derivatives P. The considered acetate P (1 mg) was dissolved in DMSO (0.2 mL) and then diluted by adding a solution of acidic ethanol (0.3 ml) made from the addition of 37% hydrochloric acid (100 μl) on 100% ethanol (12 mL). This 0.5 mL solution was incubated at 50° C. for 2 hours to give a stock solution which was then stored at −80° C. […] Nota: these conditions are only adapted to the hydrolysis of the protecting group (as defined above) of the oxygen on position 2 of the imidazo[1,2-a]pyrazine ring system and not to the hydrolysis of any additional acetyl groups eventually present elsewhere on the substrate of this reaction.
The representative bioluminescence curves shown in the FIG. 2 provided an assessment for furimazine (Q-1), 8-benzyl-2-(furan-2-ylmethyl)-6-(4-hydroxyphenyl)imidazo[1,2-a]pyrazin-3 (7/1)-one (Q-80), 8-(2-fluorobenzyl)-2-(furan-2-ylmethyl)-6-phenylimidazo[1,2-a]pyrazin-3(7H)-one (Q-84), and 8-(2-fluorobenzyl)-2-((5-methylfuran-2-yl)methyl)-6-phenylimidazo[1,2-a]pyrazin-3(7H)-one (Q-85) was obtained using a luciferase expressed in vitro as described in the following. The nanoKAZ DNA template was cloned into Thermo Scientific pT7CFE1-based vector and nanoKAZ was expressed using ThermoFisher Scientific 1-Step Human Coupled IVT Kit—DNA (ref. 88881) according to the manufacturer instructions. The resulting reaction mix was diluted 400 times in buffer (DPBS (Gibco)+0.1% (v/v) Tween 20) and conserved at −80° C. The screening of the imidazo[1,2-a]pyrazin-3(7H)-ones was performed in 96 well plates using 50 μL/well of a 1/20 dilution in DPBS (Gibco)+0.1% (v/v) Tween 20 of the nanoKAZ solution.
To illustrate the bioluminescence properties improvement achieved for many of the imidazo[1,2-a]pyrazin-3(7H)-ones described here, four values are provided in Table 1: maximum intensity (V1), signal half-life (V2), area under the curve for ten minutes (V3), and area under the curve for two hours (V4), normalized using furimazine (Q-1) as a reference.
The bioluminescence properties of the tested compounds are considered to be improved when at least one of the values V1-V4 is above 1, and when none of the V1-V4 values is 0.05 or below.
By following the hydrolysis protocol described above, the following imidazo[1,2-a]pyrazin-3(7H)-ones luciferins Q were made in situ from the corresponding O-protected imidazo[1,2-a]pyrazines P and evaluated for their bioluminescence properties (maximum intensity (V1), signal half-life (V2), area under the curve for […], normalized using furimazine (Q-1) as a reference): […]

[1] = second table, luciferins made in situ from O-protected P

## O=c1c(Cc2ccccc2)nc2c(Cc3ccccc3F)[nH]c(-c3ccccc3)cn1-2 [Q-72, 2-benzyl-8-(2-fluorobenzyl)-6-phenylimidazo[1,2-a]pyrazin-3(7H)-one]
Table 1
  V1: maximum intensity, normalized using furimazine (Q-1) as a reference: 1.49
  V3: area under the curve for ten minutes, normalized using furimazine (Q-1) as a reference: 1.49
  V4: area under the curve for two hours, normalized using furimazine (Q-1) as a reference: 0.85

## Cc1cc(Cc2nc3c(Cc4cccc(F)c4F)[nH]c(-c4ccccc4)cn-3c2=O)oc1C [Q-124, 8-(2,3-difluorobenzyl)-2-((4,5-dimethylfuran-2-yl)methyl)-6-phenylimidazo[1,2-a]pyrazin-3(7H)-one]
Second table
  V3: area under the curve for 2 hours, normalized using furimazine (Q-1) as a reference: 2.29
  V4: area under the curve for ten minutes, normalized using furimazine (Q-1) as a reference: 1.03
[1]
  V1: maximum intensity, normalized using furimazine (Q-1) as a reference: 2.43

## COc1cccc(Cc2nc3c(Cc4ccccc4)[nH]c(-c4ccccc4)cn-3c2=O)c1 [Q-18, 8-benzyl-2-(3-methoxybenzyl)-6-phenylimidazo[1,2-a]pyrazin-3(7H)-one]
Table 1
  V1: maximum intensity, normalized using furimazine (Q-1) as a reference: 1.53
  V3: area under the curve for ten minutes, normalized using furimazine (Q-1) as a reference: 1.41
  V4: area under the curve for two hours, normalized using furimazine (Q-1) as a reference: 0.97

## O=c1c(Cc2ccccc2)nc2c(Cc3cccc(F)c3F)[nH]c(-c3ccccc3)cn1-2 [Q-117, 2-benzyl-8-(2,3-difluorobenzyl)-6-phenylimidazo[1,2-a]pyrazin-3(7H)-one]
Second table
  V3: area under the curve for 2 hours, normalized using furimazine (Q-1) as a reference: 1.94
  V4: area under the curve for ten minutes, normalized using furimazine (Q-1) as a reference: 0.7
[1]
  V1: maximum intensity, normalized using furimazine (Q-1) as a reference: 2.31

## O=c1c(Cc2ccco2)nc2c(Cc3ccccc3)[nH]c(-c3ccccc3F)cn1-2 [Q-21, 8-benzyl-6-(2-fluorophenyl)-2-(furan-2-ylmethyl)imidazo[1,2-a]pyrazin-3(7H)-one]
Table 1
  V1: maximum intensity, normalized using furimazine (Q-1) as a reference: 1.39
  V3: area under the curve for ten minutes, normalized using furimazine (Q-1) as a reference: 1.33
  V4: area under the curve for two hours, normalized using furimazine (Q-1) as a reference: 1.08

## COc1cccc(Cc2nc3c(Cc4ccccc4F)[nH]c(-c4ccccc4)cn-3c2=O)c1 [Q-83, 8-(2-fluorobenzyl)-2-(3-methoxybenzyl)-6-phenylimidazo[1,2-a]pyrazin-3(7H)-one]
Table 1
  V1: maximum intensity, normalized using furimazine (Q-1) as a reference: 1.46
  V3: area under the curve for ten minutes, normalized using furimazine (Q-1) as a reference: 1.49
  V4: area under the curve for two hours, normalized using furimazine (Q-1) as a reference: 1.12

## Cc1ccc(Cc2nc3c(Cc4ccccc4)[nH]c(-c4cccc(F)c4)cn-3c2=O)o1 [Q-54, 8-benzyl-6-(3-fluorophenyl)-2-((5-methylfuran-2-yl)methyl)imidazo[1,2-a]pyrazin-3(7H)-one]
Table 1
  V1: maximum intensity, normalized using furimazine (Q-1) as a reference: 2.73
  V3: area under the curve for ten minutes, normalized using furimazine (Q-1) as a reference: 2.32
  V4: area under the curve for two hours, normalized using furimazine (Q-1) as a reference: 1.22

## CCc1ccc(Cc2nc3c(Cc4c(F)cccc4F)[nH]c(-c4ccccc4)cn-3c2=O)o1 [Q-129, 8-(2,6-difluorobenzyl)-2-((5-ethylfuran-2-yl)methyl)-6-phenylimidazo[1,2-a]pyrazin-3(7H)-one]
Second table
  V3: area under the curve for 2 hours, normalized using furimazine (Q-1) as a reference: 1.37
  V4: area under the curve for ten minutes, normalized using furimazine (Q-1) as a reference: 1.32
[1]
  V1: maximum intensity, normalized using furimazine (Q-1) as a reference: 1.41

## O=c1c(Cc2ccccc2)nc2c(Cc3ccccc3)[nH]c(-c3ccccc3F)cn1-2 [Q-20, 2,8-dibenzyl-6-(2-fluorophenyl)imidazo[1,2-a]pyrazin-3(7H)-one]
Table 1
  V1: maximum intensity, normalized using furimazine (Q-1) as a reference: 2
  V3: area under the curve for ten minutes, normalized using furimazine (Q-1) as a reference: 1.59
  V4: area under the curve for two hours, normalized using furimazine (Q-1) as a reference: 0.66

## CCc1ccc(Cc2nc3c(Cc4ccccc4)[nH]c(-c4ccccc4)cn-3c2=O)o1 [Q-12, 8-benzyl-2-((5-ethylfuran-2-yl)methyl)-6-phenylimidazo[1,2-a]pyrazin-3(7H)-one]
Table 1
  V1: maximum intensity, normalized using furimazine (Q-1) as a reference: 2.28
  V3: area under the curve for ten minutes, normalized using furimazine (Q-1) as a reference: 2.2
  V4: area under the curve for two hours, normalized using furimazine (Q-1) as a reference: 1.28

## O=c1c(Cc2ccco2)nc2c(Cc3ccccc3F)[nH]c(-c3ccccc3)cn1-2 [Q-84, 8-(2-fluorobenzyl)-2-(furan-2-ylmethyl)-6-phenylimidazo[1,2-a]pyrazin-3(7H)-one]
Table 1
  V1: maximum intensity, normalized using furimazine (Q-1) as a reference: 0.84
  V3: area under the curve for ten minutes, normalized using furimazine (Q-1) as a reference: 0.91
  V4: area under the curve for two hours, normalized using furimazine (Q-1) as a reference: 1.18

## O=c1c(Cc2ccccc2)nc2c(Cc3ccccc3)[nH]c(-c3c(F)cccc3F)cn1-2 [Q-29, 2,8-dibenzyl-6-(2,6-difluorophenyl)imidazo[1,2-a]pyrazin-3(7H)-one]
Table 1
  V1: maximum intensity, normalized using furimazine (Q-1) as a reference: 1.86
  V3: area under the curve for ten minutes, normalized using furimazine (Q-1) as a reference: 1.48
  V4: area under the curve for two hours, normalized using furimazine (Q-1) as a reference: 0.55

## CCc1ccc(Cc2nc3c(Cc4ccccc4)[nH]c(-c4ccccc4F)cn-3c2=O)o1 [Q-51, 8-benzyl-2-((5-ethylfuran-2-yl)methyl)-6-(2-fluorophenyl)imidazo[1,2-a]pyrazin-3(7H)-one]
Table 1
  V1: maximum intensity, normalized using furimazine (Q-1) as a reference: 2.59
  V3: area under the curve for ten minutes, normalized using furimazine (Q-1) as a reference: 2.33
  V4: area under the curve for two hours, normalized using furimazine (Q-1) as a reference: 1.19

## O=c1c(Cc2ccco2)nc2c(Cc3cccc(F)c3F)[nH]c(-c3ccccc3)cn1-2 [Q-107, 8-(2,3-difluorobenzyl)-2-(furan-2-ylmethyl)-6-phenylimidazo[1,2-a]pyrazin-3(7H)-one]
Second table
  V3: area under the curve for 2 hours, normalized using furimazine (Q-1) as a reference: 1.04
  V4: area under the curve for ten minutes, normalized using furimazine (Q-1) as a reference: 1.27
[1]
  V1: maximum intensity, normalized using furimazine (Q-1) as a reference: 1.03

## O=c1c(Cc2ccco2)nc2c(Cc3cccc(F)c3)[nH]c(-c3ccccc3)cn1-2 [Q-81, 8-(3-fluorobenzyl)-2-(furan-2-ylmethyl)-6-phenylimidazo[1,2-a]pyrazin-3(7H)-one]
Table 1
  V1: maximum intensity, normalized using furimazine (Q-1) as a reference: 0.82
  V3: area under the curve for ten minutes, normalized using furimazine (Q-1) as a reference: 0.92
  V4: area under the curve for two hours, normalized using furimazine (Q-1) as a reference: 1.31

## CCc1oc(Cc2nc3c(Cc4cccc(F)c4F)[nH]c(-c4ccccc4)cn-3c2=O)cc1C [Q-143, 8-(2,3-difluorobenzyl)-2-((5-ethyl-4-methylfuran-2-yl)methyl)-6-phenylimidazo[1,2-a]pyrazin-3(7H)-one]
Second table
  V3: area under the curve for 2 hours, normalized using furimazine (Q-1) as a reference: 0.39
  V4: area under the curve for ten minutes, normalized using furimazine (Q-1) as a reference: 1.34
[1]
  V1: maximum intensity, normalized using furimazine (Q-1) as a reference: 1.43

## Cc1cccc(Cc2nc3c(Cc4ccccc4F)[nH]c(-c4ccccc4)cn-3c2=O)c1 [Q-82, 8-(2-fluorobenzyl)-2-(3-methylbenzyl)-6-phenylimidazo[1,2-a]pyrazin-3(7H)-one]
Table 1
  V1: maximum intensity, normalized using furimazine (Q-1) as a reference: 1.36
  V3: area under the curve for ten minutes, normalized using furimazine (Q-1) as a reference: 1.38
  V4: area under the curve for two hours, normalized using furimazine (Q-1) as a reference: 0.84

## Cc1ccc(Cc2nc3c(Cc4cccc(F)c4)[nH]c(-c4ccccc4)cn-3c2=O)o1 [Q-97, 8-(3-fluorobenzyl)-2-((5-methylfuran-2-yl)methyl)-6-phenylimidazo[1,2-a]pyrazin-3(7H)-one]
Table 1
  V1: maximum intensity, normalized using furimazine (Q-1) as a reference: 2.04
  V3: area under the curve for ten minutes, normalized using furimazine (Q-1) as a reference: 2.20
  V4: area under the curve for two hours, normalized using furimazine (Q-1) as a reference: 2.04

## CCc1ccc(Cc2nc3c(Cc4ccccc4)[nH]c(-c4ccccc4)cn-3c2=O)s1 [Q-58, 8-benzyl-2-((5-ethylthiophen-2-yl)methyl)-6-phenylimidazo[1,2-a]pyrazin-3(7H)-one]
Table 1
  V1: maximum intensity, normalized using furimazine (Q-1) as a reference: 1.71
  V3: area under the curve for ten minutes, normalized using furimazine (Q-1) as a reference: 1.61
  V4: area under the curve for two hours, normalized using furimazine (Q-1) as a reference: 0.69

## CCCc1ccc(Cc2nc3c(Cc4ccccc4)[nH]c(-c4ccccc4)cn-3c2=O)o1 [Q-133, 8-benzyl-6-phenyl-2-((5-propylfuran-2-yl)methyl)imidazo[1,2-a]pyrazin-3(7H)-one]
Second table
  V3: area under the curve for 2 hours, normalized using furimazine (Q-1) as a reference: 1.23
  V4: area under the curve for ten minutes, normalized using furimazine (Q-1) as a reference: 1.33
[1]
  V1: maximum intensity, normalized using furimazine (Q-1) as a reference: 1.26
